How the values were obtained:
[1] = tested on: cut stems of chrysanthemums; test: Roots-inducing and fixation-stimulating actions in cut stems of chrysanthemums (leaf spray); format: in vivo; set-up: Index for roots-induction, Total indexes: scale not given here; settings: 50th day; for Index for roots-induction, cutting 1 / Index for roots-induction, cutting 2 / Index for roots-induction, cutting 3 / Index for roots-induction, cutting 4 / Index for roots-induction, cutting 5 / Index for roots-induction, cutting 6 / Index for roots-induction, cutting 7 / Index for roots-induction, cutting 8: 5 ppm water solution sprayed once onto leaves, 8 cuttings; for Index for roots-induction, Total indexes: sum of the indexes of 8 cuttings, 5 ppm spray, non-treatment 7
From the text: Stems of chrysanthemums were cut out by 5 cm from the part at 5-10 cm from the top to prepare cuttings with 2 leaves. The water solution of the tested compound (5 ppm) was sprayed once in a misty manner through an mascot spray onto the surface of leaves so that the surface got wet uniformly for each 8 cuttings. The cuttings in the pots were grew in a cabinet where the temperature was controlled in the range of 15 (C at lowest at night to 30 (C at highest in the daytime. Water was supplied appropriately according to the extent of dryness of soil during the cultivation of plants.
On the 50th day after the tested compound was sprayed, roots-induction of each cutting was checked by diggings up, and its extent was shown as an index for each rank.

[2] = tested on: cuttings of violets without roots; test: Roots-inducing and fixation-stimulating actions in cuttings of violets (leaf spray); format: in vivo
Experimental: Seedlings of violets were used in the experiment. The lower part of the seedlings of violets was cut and cuttings of violets without roots were prepared. Each cutting of violets was planted into cultivation soil in a plug tray and supplied water sufficiently.
The plug trays were lined up on the working stand in a green house where the temperature was controlled at 25-33 (C. The water solution of 4-chloroindole-3-acetic acid (20 ppm) was sprayed in a misty manner through an atomizer onto the surface of leaves so that the surface got wet uniformly (once).
Then, the plants were grew for 38 days with 1-2 times water supply every other day, and numbers of the cuttings with and without roots-induction and of the dead cuttings. In the control, the cuttings were sprayed only water instead of 4-chloroindole-3-acetic acid solution and grew under the same conditions as those described above.

[3] = 20 ppm water solution sprayed once onto leaves, after 38 days, of 93 cuttings

Row | Structure (SMILES) | Index for roots-induction, cutting 1 [1] | Index for roots-induction, cutting 2 [1] | Index for roots-induction, cutting 3 [1] | Index for roots-induction, cutting 4 [1] | Index for roots-induction, cutting 5 [1] | Index for roots-induction, cutting 6 [1] | Index for roots-induction, cutting 7 [1] | Index for roots-induction, cutting 8 [1] | Index for roots-induction, Total indexes [1] | Roots-inducing and fixation-stimulating actions (in words) ([2]; 20 ppm spray, versus water control) | Time at which roots-induction was observed ([2]; 20 ppm spray, roots checked by digging up at random, no statistical analysis, control only after 7 days) | Cuttings with roots-induction (number of cuttings) [2, 3] | Cuttings without roots-induction (%) [2, 3] | Cuttings without roots-induction (number of cuttings) [2, 3] | Dead cuttings (%) [2, 3] | Dead cuttings (number of cuttings) [2, 3] | Cuttings with roots-induction (%) ([2]; 20 ppm water solution sprayed once onto leaves, after 38 days, of 93 cuttings, listed as 4-Cl-iAA) | Cuttings with roots-induction (%) ([2]; 20 ppm water solution sprayed once onto leaves, after 38 days, of 93 cuttings, listed as 4-chloroindole-3-acetic acid)
1 | CCC(C)OC(=O)Cc1c[nH]c2cccc(Cl)c12 (racemic) [4-Cl-IAA 2-Bu] | 2 (The cuttings with 10-19 roots per a cutting) | 2 (The cuttings with 10-19 roots per a cutting) | 2 (The cuttings with 10-19 roots per a cutting) | 2 (The cuttings with 10-19 roots per a cutting) | 1 (The cuttings with 5-9 roots per a cutting) | 1 (The cuttings with 5-9 roots per a cutting) | 0 (The cuttings with less than 4 roots (including no roots)) | 0 (The cuttings with less than 4 roots (including no roots)) | 10 |  |  |  |  |  |  |  |  | 
2 | COC(=O)Cc1c[nH]c2cccc(Cl)c12 [4-Cl-IAA Me] | 3 (The cuttings with 20 or more roots per a cutting) | 3 (The cuttings with 20 or more roots per a cutting) | 3 (The cuttings with 20 or more roots per a cutting) | 2 (The cuttings with 10-19 roots per a cutting) | 2 (The cuttings with 10-19 roots per a cutting) | 2 (The cuttings with 10-19 roots per a cutting) | 0 (The cuttings with less than 4 roots (including no roots)) | 0 (The cuttings with less than 4 roots (including no roots)) | 15 |  |  |  |  |  |  |  |  | 
3 | CCCOC(=O)Cc1c[nH]c2cccc(Cl)c12 [4-Cl-IAA I-Pr] | 3 (The cuttings with 20 or more roots per a cutting) | 3 (The cuttings with 20 or more roots per a cutting) | 2 (The cuttings with 10-19 roots per a cutting) | 2 (The cuttings with 10-19 roots per a cutting) | 2 (The cuttings with 10-19 roots per a cutting) | 2 (The cuttings with 10-19 roots per a cutting) | 1 (The cuttings with 5-9 roots per a cutting) | 1 (The cuttings with 5-9 roots per a cutting) | 16 |  |  |  |  |  |  |  |  | 
4 | CC(C)COC(=O)Cc1c[nH]c2cccc(Cl)c12 [4-Cl-IAA isoBu] | 2 (The cuttings with 10-19 roots per a cutting) | 2 (The cuttings with 10-19 roots per a cutting) | 2 (The cuttings with 10-19 roots per a cutting) | 1 (The cuttings with 5-9 roots per a cutting) | 1 (The cuttings with 5-9 roots per a cutting) | 0 (The cuttings with less than 4 roots (including no roots)) | 0 (The cuttings with less than 4 roots (including no roots)) | 0 (The cuttings with less than 4 roots (including no roots)) | 8 |  |  |  |  |  |  |  |  | 
5 | CCCCOC(=O)Cc1c[nH]c2cccc(Cl)c12 [4-Cl-IAA 1-Bu] | 2 (The cuttings with 10-19 roots per a cutting) | 2 (The cuttings with 10-19 roots per a cutting) | 2 (The cuttings with 10-19 roots per a cutting) | 2 (The cuttings with 10-19 roots per a cutting) | 1 (The cuttings with 5-9 roots per a cutting) | 1 (The cuttings with 5-9 roots per a cutting) | 0 (The cuttings with less than 4 roots (including no roots)) | 0 (The cuttings with less than 4 roots (including no roots)) | 10 |  |  |  |  |  |  |  |  | 
6 | O=C(O)Cc1c[nH]c2cccc(Cl)c12 [4-Cl-IAA, 4-chloroindole-3-acetic acid] | 3 (The cuttings with 20 or more roots per a cutting) | 2 (The cuttings with 10-19 roots per a cutting) | 2 (The cuttings with 10-19 roots per a cutting) | 2 (The cuttings with 10-19 roots per a cutting) | 2 (The cuttings with 10-19 roots per a cutting) | 2 (The cuttings with 10-19 roots per a cutting) | 0 (The cuttings with less than 4 roots (including no roots)) | 0 (The cuttings with less than 4 roots (including no roots)) | 13 | extremely prominent | around 3 days | 74 | (6) % | 6 | (14) % | 13 | (80) % | 80
7 | C=CCOC(=O)Cc1c[nH]c2cccc(Cl)c12 [4-Cl-IAA Ally] | 3 (The cuttings with 20 or more roots per a cutting) | 3 (The cuttings with 20 or more roots per a cutting) | 2 (The cuttings with 10-19 roots per a cutting) | 2 (The cuttings with 10-19 roots per a cutting) | 2 (The cuttings with 10-19 roots per a cutting) | 1 (The cuttings with 5-9 roots per a cutting) | 1 (The cuttings with 5-9 roots per a cutting) | 0 (The cuttings with less than 4 roots (including no roots)) | 14 |  |  |  |  |  |  |  |  | 
8 | CCCCCOC(=O)Cc1c[nH]c2cccc(Cl)c12 [4-Cl-IAA pentyl] | 2 (The cuttings with 10-19 roots per a cutting) | 2 (The cuttings with 10-19 roots per a cutting) | 2 (The cuttings with 10-19 roots per a cutting) | 2 (The cuttings with 10-19 roots per a cutting) | 1 (The cuttings with 5-9 roots per a cutting) | 1 (The cuttings with 5-9 roots per a cutting) | 0 (The cuttings with less than 4 roots (including no roots)) | 0 (The cuttings with less than 4 roots (including no roots)) | 10 |  |  |  |  |  |  |  |  | 
9 | CCOC(=O)Cc1c[nH]c2cccc(Cl)c12 [4-Cl-IAA Et] | 3 (The cuttings with 20 or more roots per a cutting) | 3 (The cuttings with 20 or more roots per a cutting) | 3 (The cuttings with 20 or more roots per a cutting) | 3 (The cuttings with 20 or more roots per a cutting) | 3 (The cuttings with 20 or more roots per a cutting) | 2 (The cuttings with 10-19 roots per a cutting) | 1 (The cuttings with 5-9 roots per a cutting) | 0 (The cuttings with less than 4 roots (including no roots)) | 18 |  |  |  |  |  |  |  |  | 
10 | CC(C)OC(=O)Cc1c[nH]c2cccc(Cl)c12 [4-Cl-IAA 2-Pr] | 2 (The cuttings with 10-19 roots per a cutting) | 2 (The cuttings with 10-19 roots per a cutting) | 2 (The cuttings with 10-19 roots per a cutting) | 2 (The cuttings with 10-19 roots per a cutting) | 2 (The cuttings with 10-19 roots per a cutting) | 1 (The cuttings with 5-9 roots per a cutting) | 0 (The cuttings with less than 4 roots (including no roots)) | 0 (The cuttings with less than 4 roots (including no roots)) | 11 |  |  |  |  |  |  |  |  | 

From patent publication US20030083202A1, “Roots-inducing agent of plants and its treatment method” (priority 2001, published 2003)
